Source: PubChem BioAssay AID212 (DTP/NCI, 2004)
“And” between values parts separate entries of the source, which are not always exact repeats. Identical values can stand only once. Results filed as inconclusive are left out.

Test system: BDF1 mice, colon carcinoma 38 sc, T/C %
Assay: NCI In Vivo Anticancer Drug Screen. Data for tumor model Colon Carcinoma 38 (subcutaneous) in B6D2F1 (BDF1) mice
Conditions: endpoint: median tumor weight (est.), higher = larger tumour
How it was run: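 Transplantable tumor in mice; compound-treated vs vehicle-dosed controls. Measured survival or tumor size; value = T ÷ C.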

[1] = dose: 12.5 mg/kg/injection, schedule: Q07DX002 (ip), vehicle: saline with Tween-80
[2] = dose: 25.0 mg/kg/injection, schedule: Q07DX002 (ip), vehicle: saline with Tween-80
[3] = dose: 100.0 mg/kg/injection, schedule: Q07DX002 (ip), vehicle: saline with Tween-80
[4] = dose: 200.0 mg/kg/injection, schedule: Q07DX002 (ip), vehicle: saline with Tween-80
[5] = dose: 6.25 mg/kg/injection, schedule: Q07DX002 (ip), vehicle: saline with Tween-80
[6] = dose: 50.0 mg/kg/injection, schedule: Q07DX002 (ip), vehicle: saline
[7] = dose: 200.0 mg/kg/injection, schedule: Q07DX002 (ip), vehicle: saline
[8] = dose: 400.0 mg/kg/injection, schedule: Q07DX002 (ip), vehicle: saline
[9] = dose: 50.0 mg/kg/injection, schedule: Q07DX002 (ip), vehicle: saline with Tween-80
[10] = dose: 12.5 mg/kg/injection, schedule: Q07DX002 (ip), vehicle: saline
[11] = dose: 25.0 mg/kg/injection, schedule: Q07DX002 (ip), vehicle: saline
[12] = dose: 4.0 mg/kg/injection, schedule: Q07DX002 (ip), vehicle: Klucel (hydroxypropylcellulose) (HPC)
[13] = dose: 400.0 mg/kg/injection, schedule: Q07DX002 (ip), vehicle: saline with Tween-80
[14] = dose: 50.0 mg/kg/injection, schedule: Q07DX002 (ip), vehicle: Klucel (hydroxypropylcellulose) (HPC)
[15] = dose: 100.0 mg/kg/injection, schedule: Q07DX002 (ip), vehicle: Klucel (hydroxypropylcellulose) (HPC)

SMILES: O=C(O)CCCc1ccc(N(CCCl)CCCl)cc1
- T/C (dose: 7.5 mg/kg/injection, schedule: Q07DX003 (ip), vehicle: saline with Tween-80): 103 % of control
- T/C (dose: 15.0 mg/kg/injection, schedule: Q07DX002 (ip), vehicle: Klucel (hydroxypropylcellulose) (HPC)): 62 % of control and 72 % of control and 82 % of control
- T/C (dose: 15.0 mg/kg/injection, schedule: Q07DX003 (ip), vehicle: saline with Tween-80): 37 % of control
- T/C (dose: 30.0 mg/kg/injection, schedule: Q07DX003 (ip), vehicle: saline with Tween-80): 62 % of control
- T/C (dose: 60.0 mg/kg/injection, schedule: Q07DX002 (ip), vehicle: Klucel (hydroxypropylcellulose) (HPC)): 69 % of control

SMILES: C1=CCOCOC1
- T/C [1]: 77 % of control
- T/C [2]: 94 % of control and 104 % of control
- T/C [3]: 72 % of control
- T/C [4]: 58 % of control

SMILES: NC(=O)c1csc(C2OC(CO)C(O)C2O)n1 (configuration not stated)
- T/C (dose: 50.0 mg/kg/injection, schedule: Q07DX002 (ip), vehicle: water): 154 % of control
- T/C (dose: 100.0 mg/kg/injection, schedule: Q07DX002 (ip), vehicle: water): 121 % of control and 106 % of control
- T/C (dose: 200.0 mg/kg/injection, schedule: Q07DX002 (ip), vehicle: water): 111 % of control and 92 % of control
- T/C (dose: 400.0 mg/kg/injection, schedule: Q07DX002 (ip), vehicle: water): 124 % of control and 104 % of control
- T/C (dose: 800.0 mg/kg/injection, schedule: Q07DX002 (ip), vehicle: water): 72 % of control

SMILES: Cc1ccc[c]([Hg][Cl])c1N=Nc1ccccc1
- T/C [5]: 69 % of control

SMILES: COC(=O)C(N)Cc1ccc(O)c(O)c1 (configuration not stated)
- T/C [6]: 85 % of control
- T/C (dose: 100.0 mg/kg/injection, schedule: Q07DX002 (ip), vehicle: saline): 113 % of control
- T/C [7]: 88 % of control
- T/C [8]: 99 % of control
- T/C (dose: 800.0 mg/kg/injection, schedule: Q07DX002 (ip), vehicle: saline): 110 % of control
- T/C (dose: 1600.0 mg/kg/injection, schedule: Q07DX002 (ip), vehicle: saline): 51 % of control

SMILES: CC(=O)O[C@@H]1CO[C@H]2O[C@H]3[C@@H](C(C=O)=C[C@H](O)[C@@H]4C5=C(C(C)C)CC[C@]5(C)CC[C@@]34C)[C@@]2(O)C1=O
- T/C (dose: 1.5 mg/kg/injection, schedule: Q07DX002 (ip), vehicle: Klucel (hydroxypropylcellulose) (HPC)): 57 % of control
- T/C (dose: 3.0 mg/kg/injection, schedule: Q07DX002 (ip), vehicle: Klucel (hydroxypropylcellulose) (HPC)): 80 % of control
- T/C (dose: 6.0 mg/kg/injection, schedule: Q07DX002 (ip), vehicle: Klucel (hydroxypropylcellulose) (HPC)): 61 % of control
- T/C (dose: 12.0 mg/kg/injection, schedule: Q07DX002 (ip), vehicle: Klucel (hydroxypropylcellulose) (HPC)): 86 % of control

SMILES: Cc1cc(=O)n2c3c(c4c(cc13)c(CN(C)C)cc(=O)n4C)OC2
- T/C [2]: 73 % of control
- T/C [9]: 56 % of control
- T/C [3]: 45 % of control

SMILES: CSC(SC)=C1C(=O)NC(=O)NC1=O
- T/C (dose: 6.25 mg/kg/injection, schedule: Q07DX002 (ip), vehicle: saline): 85 % of control
- T/C [10]: 70 % of control
- T/C [11]: 83 % of control
- T/C [6]: 45 % of control

SMILES: O=C(O)C1CC1.[Ag]
- T/C (dose: 6.25 mg/kg/injection, schedule: Q07DX002 (ip), vehicle: distilled water + Tween-80): 119 % of control
- T/C (dose: 6.25 mg/kg/injection, schedule: Q07DX002 (ip), vehicle: water): 108 % of control
- T/C (dose: 12.5 mg/kg/injection, schedule: Q07DX002 (ip), vehicle: water): 84 % of control
- T/C (dose: 25.0 mg/kg/injection, schedule: Q07DX002 (ip), vehicle: distilled water + Tween-80): 87 % of control

SMILES: Clc1ccc(C(c2ccc(Cl)cc2)C(Cl)(Cl)Cl)cc1
- T/C [12]: 123 % of control
- T/C (dose: 8.0 mg/kg/injection, schedule: Q07DX002 (ip), vehicle: Klucel (hydroxypropylcellulose) (HPC)): 94 % of control
- T/C (dose: 16.0 mg/kg/injection, schedule: Q07DX002 (ip), vehicle: Klucel (hydroxypropylcellulose) (HPC)): 112 % of control
- T/C (dose: 32.0 mg/kg/injection, schedule: Q07DX002 (ip), vehicle: Klucel (hydroxypropylcellulose) (HPC)): 122 % of control

SMILES: Cc1ccc(NCC2(/N=C/c3ccccc3)OC(CO)C(O)C2O)cc1 (configuration not stated)
- T/C (dose: 12.5 mg/kg/injection, schedule: Q07DX003 (ip), vehicle: Klucel (hydroxypropylcellulose) (HPC)): 110 % of control
- T/C (dose: 25.0 mg/kg/injection, schedule: Q07DX003 (ip), vehicle: Klucel (hydroxypropylcellulose) (HPC)): 69 % of control
- T/C (dose: 50.0 mg/kg/injection, schedule: Q07DX003 (ip), vehicle: Klucel (hydroxypropylcellulose) (HPC)): 117 % of control
- T/C (dose: 100.0 mg/kg/injection, schedule: Q07DX003 (ip), vehicle: Klucel (hydroxypropylcellulose) (HPC)): 106 % of control
- T/C (dose: 200.0 mg/kg/injection, schedule: Q07DX003 (ip), vehicle: Klucel (hydroxypropylcellulose) (HPC)): 59 % of control

SMILES: CC(=O)Oc1[nH]c(=O)c2cccc3c2c1CCC3
- T/C [9]: 161 % of control
- T/C [4]: 118 % of control
- T/C [13]: 122 % of control
- T/C (dose: 1600.0 mg/kg/injection, schedule: Q07DX002 (ip), vehicle: saline with Tween-80): 118 % of control

SMILES: Nc1nc(N)c2c(ccc3c2ccn3Cc2cccc([N+](=O)[O-])c2)n1
- T/C (dose: 3.12 mg/kg/injection, schedule: Q07DX002 (ip), vehicle: saline with Tween-80): 85 % of control
- T/C [5]: 80 % of control
- T/C [1]: 72 % of control
- T/C [2]: 14 % of control

SMILES: COc1cc(C)c(C2NC(=O)c3ccccc3N2)cc1C (configuration not stated)
- T/C [14]: 121 % of control
- T/C [15]: 78 % of control
- T/C (dose: 400.0 mg/kg/injection, schedule: Q07DX002 (ip), vehicle: Klucel (hydroxypropylcellulose) (HPC)): 117 % of control
- T/C (dose: 800.0 mg/kg/injection, schedule: Q07DX002 (ip), vehicle: Klucel (hydroxypropylcellulose) (HPC)): 108 % of control

SMILES: COC(=O)c1ccoc1
- T/C [11]: 105 % of control
- T/C [6]: 94 % of control
- T/C [7]: 118 % of control
- T/C [8]: 112 % of control

SMILES: COC1=C(C)C(=O)C2=C(C1=O)C1C3CC4=C(C(=O)C(OC)=C(C)C4=O)C(CNC(=O)C(C)=O)N3C(C#N)C(C2)N1C (configuration not stated)
- T/C (dose: 0.16 mg/kg/injection, schedule: Q07DX002 (ip), vehicle: Klucel (hydroxypropylcellulose) (HPC)): 56 % of control
- T/C (dose: 0.25 mg/kg/injection, schedule: Q07DX002 (ip), vehicle: Klucel (hydroxypropylcellulose) (HPC)): 98 % of control
- T/C (dose: 0.31 mg/kg/injection, schedule: Q07DX002 (ip), vehicle: Klucel (hydroxypropylcellulose) (HPC)): 84 % of control
- T/C (dose: 0.5 mg/kg/injection, schedule: Q07DX002 (ip), vehicle: Klucel (hydroxypropylcellulose) (HPC)): 84 % of control
- T/C (dose: 0.62 mg/kg/injection, schedule: Q07DX002 (ip), vehicle: Klucel (hydroxypropylcellulose) (HPC)): 80 % of control
- T/C (dose: 1.0 mg/kg/injection, schedule: Q07DX002 (ip), vehicle: Klucel (hydroxypropylcellulose) (HPC)): 87 % of control
- T/C (dose: 1.25 mg/kg/injection, schedule: Q07DX002 (ip), vehicle: Klucel (hydroxypropylcellulose) (HPC)): 53 % of control and 73 % of control
- T/C (dose: 2.0 mg/kg/injection, schedule: Q07DX002 (ip), vehicle: Klucel (hydroxypropylcellulose) (HPC)): 72 % of control
- T/C [12]: 77 % of control

SMILES: COC(=O)C(Cl)(Cl)N=Nc1c(Cl)cc(Cl)c(C)c1Cl
- T/C [10]: 118 % of control
- T/C [11]: 123 % of control
- T/C [6]: 123 % of control
- T/C [7]: 101 % of control

SMILES: CCN(C)N=Nc1ccc(C(N)=O)cc1
- T/C (dose: 12.5 mg/kg/injection, schedule: Q07DX002 (ip), vehicle: Klucel (hydroxypropylcellulose) (HPC)): 82 % of control and 84 % of control
- T/C (dose: 25.0 mg/kg/injection, schedule: Q07DX002 (ip), vehicle: Klucel (hydroxypropylcellulose) (HPC)): 82 % of control and 87 % of control
- T/C [14]: 56 % of control and 63 % of control and 76 % of control
- T/C [15]: 61 % of control and 77 % of control and 78 % of control

SMILES: Cc1c2ccccc2cc2cccc[n+]12
- T/C (dose: 10.0 mg/kg/injection, schedule: Q07DX002 (ip), vehicle: saline): 87 % of control and 96 % of control
- T/C (dose: 20.0 mg/kg/injection, schedule: Q07DX002 (ip), vehicle: saline): 77 % of control
- T/C (dose: 40.0 mg/kg/injection, schedule: Q07DX002 (ip), vehicle: saline): 112 % of control and 94 % of control
- T/C (dose: 80.0 mg/kg/injection, schedule: Q07DX002 (ip), vehicle: saline): 109 % of control

SMILES: CCOC(=O)N1CCc2nc3ccc(Cl)cc3cc21
- T/C [2]: 68 % of control
- T/C [9]: 68 % of control
- T/C [3]: 166 % of control
- T/C [4]: 79 % of control
- T/C [13]: 111 % of control
